“Also recorded” adds a separate entry of the source.
Columns and labels:
Adenovirus Type-19 = test: Viral Suspension Assay, Adenovirus Type-19; type: cell-based
Procedure: (§1) The Viral Suspension Assay was used to evaluate the antiviral properties of Alexidine against Adenovirus Type-4, Adenovirus Type-8 and Adenovirus Type-19 and Cytomegalovirus when exposed in suspension for 1, 2, 5, and 10 minutes. The presence of virus (infectivity) was determined by monitoring the virus specific cytopathic effect (CPE) on an appropriate indicator cell line, rabbit kidney. Results are reported as Percent (%) Reduction in virus titer as compared to the corresponding virus control titer (Table 1). The titer of the virus controls were 7.5 log10 following the one minute exposure time; 7.0 log10 following the two minute exposure time; and 7.75 log10 following both the five and ten minute exposure times.

Cytomegalovirus = test: Viral Suspension Assay, Cytomegalovirus; type: cell-based; conditions: 30 ppm and 99 ppm
Procedure: as §1

Adenovirus Type-8 = test: Viral Suspension Assay, Adenovirus Type-8; type: cell-based
Procedure: as §1

[1] = system: Herpes simplex virus type 1; test: Viral Suspension Assay, HSV-1; type: cell-based; conditions: 30 ppm and 99 ppm
Procedure: as §1, with “Herpes simplex virus type 1” for “Adenovirus Type-4, Adenovirus Type-8 and Adenovirus Type-19 and Cytomegalovirus”

Adenovirus Type-4 = test: Viral Suspension Assay, Adenovirus Type-4; type: cell-based
Procedure: as §1

Aspergillus = conditions: 0.02%; cited from earlier work

Molecule | Percent Reduction (%) (Adenovirus Type-19; Alexidine 30 ppm and 99 ppm, 1, 2, 5 and 10 minutes) | Effectiveness against Adenovirus Type-19 (in words) (Adenovirus Type-19; particular strain tested) | Effectiveness against Cytomegalovirus (in words) (Cytomegalovirus) | Effectiveness against Adenovirus Type-8 (in words) (Adenovirus Type-8; 30 ppm and 99 ppm) | Percent Reduction (%) (Adenovirus Type-8; Alexidine 30 ppm, 10 minutes) | Percent Reduction (%) (Adenovirus Type-8; Alexidine 99 ppm, 5 minutes) | Percent Reduction (%) (Adenovirus Type-8; Alexidine 99 ppm, 10 minutes) | Effectiveness against HSV-1 (in words) [1] | Effectiveness against Adenovirus Type-4 (in words) (Adenovirus Type-4; 30 ppm and 99 ppm) | Percent Reduction (%) (Adenovirus Type-4; Alexidine 30 ppm, 1 minute) | Percent Reduction (%) (Adenovirus Type-4; Alexidine 30 ppm, 10 minutes) | Percent Reduction (%) (Adenovirus Type-4; Alexidine 99 ppm, 1 minute) | Percent Reduction (%) (Adenovirus Type-4; Alexidine 99 ppm, 5 minutes) | Percent Reduction (%) (Adenovirus Type-4; Alexidine 99 ppm, 10 minutes) | Effectiveness in experimental Aspergillus keratitis (in words) (Aspergillus)
CCCCC(CC)CNC(=N)NC(=N)NCCCCCCNC(=N)NC(=N)NCC(CC)CCCC (stereo not drawn) [Alexidine, 1,1′-hexamethylene-bis[5-(2-ethylhexyl)biguanide]] | No reduction | did not appear to be effective | somewhat effective | somewhat effective | 90.0 | 90.0 | 90.0 | effective agents; also recorded: potent antimicrobial agent | somewhat effective | 43.8 | 68.4 | 68.4 | 43.8 | 68.4 | 
polyhexamethylene biguanide |  |  |  |  |  |  |  |  |  |  |  |  |  |  | moderately effective
